Laboratory results reported in the NIST ThermoML archive (doi:10.1021/je1003065).

Assay: mn = molality of the nth substance listed, in mol/kg
Settings: Liquid, Vibrating tube method

[Br-].[Li+] [lithium bromide] + CCO
Settings | mass density [kg/m3]
333.09 K, 10272 kPa, m1 = 2.272 | 902.05
333.1 K, 20223 kPa, m1 = 1.462 | 864.16
333.11 K, 2291 kPa, m1 = 1.462 | 848.63
333.11 K, 9932 kPa, m1 = 1.462 | 855.51
333.11 K, 29979 kPa, m1 = 1.462 | 871.75
333.12 K, 5163 kPa, m1 = 1.462 | 851.27
333.12 K, 39966 kPa, m1 = 1.462 | 878.97
333.12 K, 49993 kPa, m1 = 1.462 | 885.74
333.12 K, 59791 kPa, m1 = 1.462 | 891.94
333.12 K, 69993 kPa, m1 = 1.462 | 898.03
333.12 K, 79815 kPa, m1 = 1.462 | 903.61
333.12 K, 89925 kPa, m1 = 1.462 | 909.13
333.12 K, 100027 kPa, m1 = 1.462 | 914.48
333.13 K, 2335 kPa, m1 = 2.272 | 895.03
333.13 K, 10112 kPa, m1 = 0.5972 | 803.35
333.13 K, 79924 kPa, m1 = 0.2335 | 831.2
333.14 K, 1023 kPa, m1 = 0.2335 | 771.66
333.14 K, 1618 kPa, m1 = 3.368 | 952.85
333.14 K, 5026 kPa, m1 = 2.833 | 927.9
333.14 K, 19985 kPa, m1 = 0.2335 | 789.05
333.14 K, 40021 kPa, m1 = 2.833 | 953.59
333.14 K, 80002 kPa, m1 = 2.833 | 976.7
333.15 K, 1032 kPa, m1 = 2.833 | 924.49
333.15 K, 1267 kPa, m1 = 0.9499 | 816.76
333.15 K, 1305 kPa, m1 = 0.9499 | 816.8
333.15 K, 2100 kPa, m1 = 0.5972 | 796.01
333.15 K, 5177 kPa, m1 = 2.272 | 897.13
333.15 K, 5214 kPa, m1 = 0.9499 | 820.56
333.15 K, 5223 kPa, m1 = 0.5972 | 798.91
333.15 K, 9985 kPa, m1 = 2.833 | 931.98
333.15 K, 10026 kPa, m1 = 0.2335 | 780.15
333.15 K, 19923 kPa, m1 = 0.9499 | 833.66
333.15 K, 29942 kPa, m1 = 0.9499 | 841.73
333.15 K, 29965 kPa, m1 = 2.833 | 946.88
333.15 K, 40014 kPa, m1 = 0.9499 | 849.24
333.15 K, 49925 kPa, m1 = 2.833 | 959.77
333.15 K, 50021 kPa, m1 = 0.2335 | 812.76
333.15 K, 50078 kPa, m1 = 0.9499 | 856.2
333.15 K, 59924 kPa, m1 = 0.9499 | 862.57
333.15 K, 60012 kPa, m1 = 0.2335 | 819.01
333.15 K, 60159 kPa, m1 = 0.5972 | 841.68
333.15 K, 69784 kPa, m1 = 2.833 | 971.18
333.15 K, 69794 kPa, m1 = 0.9499 | 868.58
333.15 K, 69985 kPa, m1 = 0.2335 | 825.32
333.15 K, 79935 kPa, m1 = 0.9499 | 874.45
333.15 K, 89956 kPa, m1 = 2.833 | 981.93
333.15 K, 89965 kPa, m1 = 0.2335 | 837.01
333.15 K, 89984 kPa, m1 = 0.9499 | 880.02
333.15 K, 99907 kPa, m1 = 2.272 | 958.17
333.15 K, 99958 kPa, m1 = 0.2335 | 842.17
333.15 K, 99967 kPa, m1 = 2.833 | 987.14
333.15 K, 99986 kPa, m1 = 0.9499 | 885.41
333.16 K, 5021 kPa, m1 = 0.2335 | 775.49
333.16 K, 19968 kPa, m1 = 2.833 | 939.71
333.16 K, 20295 kPa, m1 = 0.5972 | 812.23
333.16 K, 29945 kPa, m1 = 0.2335 | 797.44
333.16 K, 29996 kPa, m1 = 0.5972 | 820.22
333.16 K, 49994 kPa, m1 = 0.5972 | 835.21
333.16 K, 59945 kPa, m1 = 2.833 | 965.67
333.16 K, 69994 kPa, m1 = 0.5972 | 847.73
333.16 K, 80063 kPa, m1 = 0.5972 | 854.04
333.16 K, 89993 kPa, m1 = 0.5972 | 859.28
333.16 K, 100035 kPa, m1 = 0.5972 | 864.08
333.17 K, 39784 kPa, m1 = 0.2335 | 805.21
333.17 K, 40191 kPa, m1 = 0.5972 | 828.11
333.17 K, 89994 kPa, m1 = 2.272 | 952.98
333.17 K, 99575 kPa, m1 = 3.368 | 1013.64
333.18 K, 19918 kPa, m1 = 3.368 | 967.06
333.18 K, 20737 kPa, m1 = 2.272 | 910.39
333.18 K, 29946 kPa, m1 = 3.368 | 974.09
333.18 K, 29993 kPa, m1 = 2.272 | 917.22
333.18 K, 39652 kPa, m1 = 3.368 | 980.47
333.18 K, 40158 kPa, m1 = 2.272 | 924.19
333.18 K, 49954 kPa, m1 = 2.272 | 930.45
333.18 K, 49993 kPa, m1 = 3.368 | 986.85
333.18 K, 59593 kPa, m1 = 3.368 | 992.46
333.18 K, 60271 kPa, m1 = 2.272 | 936.65
333.18 K, 69927 kPa, m1 = 3.368 | 998.21
333.18 K, 69979 kPa, m1 = 2.272 | 942.19
333.18 K, 79359 kPa, m1 = 2.272 | 947.33
333.18 K, 79861 kPa, m1 = 3.368 | 1003.51
333.18 K, 89946 kPa, m1 = 3.368 | 1008.74
333.19 K, 5051 kPa, m1 = 3.368 | 955.66
333.19 K, 9894 kPa, m1 = 3.368 | 959.51
348.13 K, 29954 kPa, m1 = 0.2335 | 785.62
348.13 K, 59964 kPa, m1 = 2.833 | 956.11
348.14 K, 9989 kPa, m1 = 2.833 | 920.29
348.14 K, 10032 kPa, m1 = 0.2335 | 766.83
348.14 K, 10035 kPa, m1 = 0.5972 | 790.37
348.14 K, 19956 kPa, m1 = 2.272 | 898.47
348.14 K, 19956 kPa, m1 = 3.368 | 955.83
348.14 K, 29914 kPa, m1 = 0.5972 | 809.07
348.14 K, 30021 kPa, m1 = 1.462 | 860.82
348.14 K, 39925 kPa, m1 = 2.272 | 913.47
348.14 K, 50012 kPa, m1 = 0.5972 | 824.77
348.14 K, 69957 kPa, m1 = 3.368 | 988.75
348.14 K, 79624 kPa, m1 = 2.272 | 938.32
348.14 K, 89957 kPa, m1 = 0.5972 | 850.38
348.15 K, 1002 kPa, m1 = 0.5972 | 781.38
348.15 K, 1002 kPa, m1 = 3.368 | 940.13
348.15 K, 1003 kPa, m1 = 2.272 | 881.25
348.15 K, 1024 kPa, m1 = 0.2335 | 757.55
348.15 K, 1035 kPa, m1 = 2.833 | 912.41
348.15 K, 1304 kPa, m1 = 0.9499 | 803.97
348.15 K, 2021 kPa, m1 = 1.462 | 835.77
